Assays:
[1] = system: rabbit serum obtained by immunizing with SARS-CoV strain Frankfurt 1; assay type: binding
[2] = system: sera SARS-green, SARS-yellow, 1a, 1b, 2, 6, 37, 62 and London; assay type: binding, human
two control sera = assay type: binding, human
[3] = system: serum 1a (individual 1, early serum); assay type: binding, human
[4] = system: serum 1b (individual 1, late serum); assay type: binding, human
serum 2 (individual 2) = assay type: binding, human
serum 6 (individual 6) = assay type: binding, human
serum 37 (individual 37) = assay type: binding, human
serum 62 (individual 62) = assay type: binding, human
serum London = assay type: binding, human
serum SARS-yellow = assay type: binding, human
serum SARS-green = assay type: binding, human
[5] = system: control serum LUMC (pooled serum of ten healthy hospital workers); assay type: binding, human
[6] = system: control serum Blood-bank (commercial negative donor pooled serum); assay type: binding, human

Sequence | Rabbit serum linear peptides [1] | Rabbit serum looped peptides [1] | Recognition of the peptide by sera of individuals infected by SARS-CoV, form recognized [2] | Recognition by at least one of the control sera (two control sera) | Binding of serum 1a to linear peptides of Orf14 of SARS-CoV TOR2 [3] | Binding of serum 1b to linear peptides of Orf14 of SARS-CoV TOR2 [4] | Binding of serum 2 to linear peptides of Orf14 of SARS-CoV TOR2 (serum 2 (individual 2)) | Binding of serum 6 to linear peptides of Orf14 of SARS-CoV TOR2 (serum 6 (individual 6)) | Binding of serum 37 to linear peptides of Orf14 of SARS-CoV TOR2 (serum 37 (individual 37)) | Binding of serum 62 to linear peptides of Orf14 of SARS-CoV TOR2 (serum 62 (individual 62)) | Binding of serum London to linear peptides of Orf14 of SARS-CoV TOR2 (serum London) | Binding of serum SARS-yellow to linear peptides of Orf14 of SARS-CoV TOR2 (serum SARS-yellow) | Binding of serum SARS-green to linear peptides of Orf14 of SARS-CoV TOR2 (serum SARS-green) | Control serum LUMC linear peptides [5] | Control serum LUMC looped peptides [5] | Control Serum Blood-Bank Looped peptides [6] | Control serum Blood-bank linear peptides [6]
VPPALHLVDPQIQLT | 1.0 | 0.4 | recognized in linear and in looped form | recognized by at least one of the control sera | – | – | – | – | – | – | – | – | – | – | – | – | –
TVVQRCASNKPHVLE | 0.7 | 0.3 | recognized in linear and in looped form | recognized by at least one of the control sera | – | – | – | – | – | – | – | – | – | – | – | – | –
TNVVPPALHLVDPQI | 0.1 | 0.5 | recognized in linear and in looped form | recognized by at least one of the control sera | – | – | – | – | – | – | – | – | – | – | – | – | –
VVPPALHLVDPQIQL | 1.2 | 0.4 | recognized in linear and in looped form | recognized by at least one of the control sera | – | – | – | – | – | – | – | – | – | – | – | – | –
NVVPPALHLVDPQIQ | 0.1 | 0.5 | recognized in linear and in looped form | recognized by at least one of the control sera | – | – | – | – | – | – | – | – | – | – | – | – | –
ICTVVQRCASNKPHV | 0.3 | 0.4 | recognized in linear and in looped form | recognized by at least one of the control sera | – | – | – | – | – | – | – | – | – | – | – | – | –
CQKASTQREAEAAVK | – | – | recognized in looped form | – | 0.3 | 0.2 | 0.3 | 0.2 | 0.3 | 0.2 | 0.2 | 0.1 | 0.0 | 0.2 | 0.5 | 0.7 | 0.2
CYNFLKEQHCQKAST | – | – | recognized in looped form | – | 0.5 | 0.3 | 0.5 | 0.5 | 0.6 | 0.4 | 0.7 | 0.1 | 0.4 | 0.3 | 0.5 | 0.6 | 0.4
CTVVQRCASNKPHVL | 1.7 | 1.0 | recognized in linear and in looped form | recognized by at least one of the control sera | – | – | – | – | – | – | – | – | – | – | – | – | –

— patent publication US20060154243A1 (priority 2003, published 2006)
